# Assay results: ChEMBL document CHEMBL5316374, “Forrestiacids E-K: Further [4 + 2]-Type Triterpene-Diterpene Hybrids as Potential ACL Inhibitors from the Vulnerable Conifer Pseudotsuga forrestii” (J Nat Prod, 2023)
# pIC50: −log10 of the molar value.
# Molecular target: T1, ATP-citrate synthase (Homo sapiens, UniProt P53396)
# T1 sequence (P53396 whole entry): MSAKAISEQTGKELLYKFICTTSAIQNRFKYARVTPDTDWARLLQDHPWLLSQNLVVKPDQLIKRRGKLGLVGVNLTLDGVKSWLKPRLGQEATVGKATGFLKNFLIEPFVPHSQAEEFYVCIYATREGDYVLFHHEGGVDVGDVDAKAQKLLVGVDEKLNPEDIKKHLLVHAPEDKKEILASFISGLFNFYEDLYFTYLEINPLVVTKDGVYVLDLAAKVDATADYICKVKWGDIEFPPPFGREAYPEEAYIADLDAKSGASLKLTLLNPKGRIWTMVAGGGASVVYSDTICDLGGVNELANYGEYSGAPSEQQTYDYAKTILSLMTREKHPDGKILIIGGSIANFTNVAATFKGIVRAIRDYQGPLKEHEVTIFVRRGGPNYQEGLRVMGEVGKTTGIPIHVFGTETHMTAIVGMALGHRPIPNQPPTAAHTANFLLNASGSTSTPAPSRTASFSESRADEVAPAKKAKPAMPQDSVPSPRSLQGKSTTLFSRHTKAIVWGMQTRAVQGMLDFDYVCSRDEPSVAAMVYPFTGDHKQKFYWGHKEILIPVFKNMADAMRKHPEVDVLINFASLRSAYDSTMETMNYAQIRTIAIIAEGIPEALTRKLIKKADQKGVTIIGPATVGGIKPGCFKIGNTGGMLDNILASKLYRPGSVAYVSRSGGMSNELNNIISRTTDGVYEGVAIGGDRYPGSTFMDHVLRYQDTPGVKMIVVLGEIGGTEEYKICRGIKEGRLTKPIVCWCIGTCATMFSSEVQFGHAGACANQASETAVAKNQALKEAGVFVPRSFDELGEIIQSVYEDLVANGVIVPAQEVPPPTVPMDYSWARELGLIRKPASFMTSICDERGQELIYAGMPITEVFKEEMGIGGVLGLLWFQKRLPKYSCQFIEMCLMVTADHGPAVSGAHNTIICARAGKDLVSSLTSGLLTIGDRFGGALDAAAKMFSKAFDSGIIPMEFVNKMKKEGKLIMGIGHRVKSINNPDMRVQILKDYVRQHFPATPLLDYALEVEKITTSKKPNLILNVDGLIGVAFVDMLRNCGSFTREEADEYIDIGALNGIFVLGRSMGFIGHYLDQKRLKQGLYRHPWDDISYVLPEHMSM
# Experiment: Inhibition of ACL (unknown origin) incubated for 30 mins in presence of ATP by luminescence based ADP-Glo kinase assay
row,Structure (SMILES),pIC50
1,COc1ccc(-c2ccccc2)cc1NS(=O)(=O)c1cc(Cl)cc(Cl)c1O,6.34
2,C=C1CC[C@@](C)([C@H](C)CC(=O)C[C@@]2(C(=O)O)C[C@H]3C[C@@H]4[C@@]5(C)CCC[C@@](C)(C(=O)O)[C@@H]5CC[C@]42C=C3C(C)C)[C@@]12CCC1=C2CC[C@@H]2[C@@H]1CCC(=O)C2(C)C,5.48
3,C=C1CC[C@@](C)([C@H](C)CC(=O)C[C@](C)(C(=O)O)[C@]2(C(=C)C)C=C3CC[C@@H]4[C@](C)(CCC[C@@]4(C)C(=O)O)[C@H]3CC2)[C@@]12CCC1=C2CC[C@H]2C(C)(C)C(=O)CC[C@]12C,4.96
4,CC(C)C1=CC[C@H]2C(=C1)CC[C@@H]1[C@]2(C)CCC[C@@]1(C)C(=O)O,< 4.40
5,C=C1CC[C@@](C)([C@H](C)CC(=O)C[C@]2(C(=O)O)C[C@H]3C[C@@H]4[C@@]5(C)CCC[C@@](C)(C(=O)O)[C@@H]5CC[C@]42C=C3C(C)C)[C@@]12CCC1=C2CC[C@@H]2[C@@H]1CCC(=O)C2(C)C,5.74
6,C=C1CC[C@@](C)([C@H](C)CC(=O)[C@@H]2[C@H]3C[C@@H]4[C@@]5(C)CCC[C@@](C)(C(=O)O)[C@@H]5CC[C@@]4(C=C3C(C)C)[C@@]2(C)C(=O)O)[C@@]12CCC1=C2CC[C@H]2C(C)(C)C(=O)CC[C@]12C,5.44
7,C=C1CC[C@@](C)([C@H](C)CC(=O)C[C@]2(C(=O)O)C[C@H]3C[C@@H]4[C@@]5(C)CCC[C@@](C)(C(=O)O)[C@@H]5CC[C@]42C=C3C(C)C)[C@@]12CCC1=C2CC[C@@H]2[C@@H]1CC[C@H](O)C2(C)C,5.15
8,CC(C)C1=C[C@@]23CC[C@@H]4[C@](C)(CCC[C@@]4(C)C(=O)O)[C@H]2C[C@@H]1C[C@@]3(CC(=O)C[C@@H](C)[C@H]1CC[C@@]2(C)C3=C(CC[C@]12C)[C@H]1CCC(=O)C(C)(C)[C@@H]1CC3)C(=O)O,5.59
9,C=C1CC[C@@](C)([C@H](C)CC(=O)[C@H]2[C@H]3C[C@@H]4[C@@]5(C)CCC[C@@](C)(C(=O)O)[C@@H]5CC[C@@]4(C=C3C(C)C)[C@]2(C)C(=O)O)[C@@]12CCC1=C2CC[C@H]2C(C)(C)C(=O)CC[C@]12C,5.39
10,CC(C)C1=C[C@@]23CC[C@@H]4[C@](C)(CCC[C@@]4(C)C(=O)O)[C@H]2C[C@@H]1[C@H](C(=O)C[C@@H](C)[C@H]1CC[C@@]2(C)C4=C(CC[C@]12C)[C@H]1CCC(=O)C(C)(C)[C@@H]1CC4)[C@@]3(C)C(=O)O,5.21
11,C=C1CC[C@@H]([C@H](C)CC(=O)/C=C(\C)C(=O)O)[C@@]12CCC1=C2CC[C@H]2C(C)(C)C(=O)CC[C@]12C,4.46
12,C=C1CC[C@@](C)([C@H](C)CC(=O)C[C@@](C)(C(=O)O)[C@]2(C(=C)C)C=C3CC[C@@H]4[C@](C)(CCC[C@@]4(C)C(=O)O)[C@H]3CC2)[C@@]12CCC1=C2CC[C@H]2C(C)(C)C(=O)CC[C@]12C,4.64
13,C=C1CC[C@@](C)([C@H](C)CC(=O)[C@H]2[C@H]3C[C@@H]4[C@@]5(C)CCC[C@@](C)(C(=O)O)[C@@H]5CC[C@]45C(OC(=O)[C@]25C)C3=C(C)C)[C@@]12CCC1=C2CC[C@H]2C(C)(C)C(=O)CC[C@]12C,4.97
